Measurements taken from BindingDB's records for doi:10.1021/jm0494974 (Institute, 2005).

Molecular target: Tubulin beta-2B chain (UniProt Q6B856)
Assay: Binding affinity against tubulin from goat brain relative to colchicine

Chain of Tubulin beta-2B chain (Q6B856 whole entry): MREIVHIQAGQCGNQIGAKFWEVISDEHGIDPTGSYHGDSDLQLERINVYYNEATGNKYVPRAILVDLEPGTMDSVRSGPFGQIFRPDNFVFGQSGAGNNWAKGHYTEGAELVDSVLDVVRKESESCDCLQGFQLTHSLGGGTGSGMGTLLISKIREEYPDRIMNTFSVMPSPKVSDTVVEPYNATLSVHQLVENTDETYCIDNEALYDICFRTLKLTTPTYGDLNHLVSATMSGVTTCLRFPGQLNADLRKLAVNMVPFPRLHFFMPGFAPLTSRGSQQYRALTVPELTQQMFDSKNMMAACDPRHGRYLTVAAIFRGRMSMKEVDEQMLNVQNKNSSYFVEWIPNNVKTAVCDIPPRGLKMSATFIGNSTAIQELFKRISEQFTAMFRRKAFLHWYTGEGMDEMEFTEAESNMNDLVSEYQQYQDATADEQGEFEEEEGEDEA

SMILES | Ki [µM]
COc1ccc(S(=O)(=O)Nc2cccc3cc(Cl)[nH]c23)cc1 [N-(2-Chloro-1H-indol-7-yl)-4-methoxy-benzenesulfonamide] | 28
COc1ccc(S(=O)(=O)Nc2cc(Cl)cc3cc[nH]c23)cc1 [N-(5-Chloro-1H-indol-7-yl)-4-methoxy-benzenesulfonamide] | 7
COc1ccc(S(=O)(=O)Nc2cccc3cc[nH]c23)cc1 [N-(1H-Indol-7-yl)-4-methoxy-benzenesulfonamide] | 14

More lines, now with the values ahead:

Ki [µM] | SMILES
14 | COc1ccc(S(=O)(=O)Nc2ccc(Cl)c3cc[nH]c23)cc1 [N-(4-Chloro-1H-indol-7-yl)-4-methoxy-benzenesulfonamide]
14 | COc1ccc(S(=O)(=O)Nc2cccc3c(Cl)c[nH]c23)cc1 [N-(3-Chloro-1H-indol-7-yl)-4-methoxy-benzenesulfonamide]
